Data: patent US20250170104A1, “INHIBITORS OF PSEUDOMONAS AERUGINOSA VIRULENCE FACTOR Lasß” (priority 2022, published 2025)

Assays:
LasB = LasB (Pseudomonas aeruginosa (strain ATCC 15692 / DSM 22644 / CIP 104116 / JCM 14847 / LMG 12228 / 1C / PRS 101 / PAO1), UniProt P14756); assay: In vitro LasB activity assay (fluorogenic substrate); type: biochemical; conditions: LasB 0.3 nM, substrate 150 μM, mean ± SD
Outline: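 LasB (0.3 nM) preincubated 15 min at 37 °C with compound, then 150 µM Abz-Ala-Gly-Leu-Ala-p-nitrobenzylamide added in 50 mM Tris pH 7.2, 2.5 mM CaCl2, 0.075% Pluronic F-127, 5% DMSO. Fluorescence (ex 340, em 415 nm) followed 60 min at 37 °C. IC50 from blank-corrected v/v0 slopes, nonlinear regression, Hill slope fixed at 1.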

[1] = tested on: P. aeruginosa PAO1 (strain DSM22644); assay: G. mellonella larvae survival after PAO1 infection; type: in vivo; conditions: for Final survival percentage of larvae: 3 CFU/Larva, 24 h
Method: Bacteria were grown overnight, diluted to OD600 of 0.025 in 10 ml medium, and grown for approx. 2 hours at 37° C. inside a shaker incubator until the OD600 of 1.8-2 is reached. The culture was then serially diluted in sterile PBS (pH=7.2). Bacterial densities of 3000, 300, 30, and 3 CFU/Larva were selected for injection into groups of 15 larvae. A total volume of 5 μl was injected into each larva via the hindmost left proleg by using a syringe pump and Sterican® needles (0.30×12 mm, 30G×½). In addition, control group without injection for the quality of the larvae and a PBS control to monitor the effect of the injection were included in the experiment. All test groups and control groups were incubated at 37° C. in the dark and monitored every 2 hours from 17 hours post-infection.
In vivo evaluation of compounds 162 and 169. Bacteria were cultured and prepared according to the previous section. Final concentrations of 50 μM, 25 μM, and 12.5 μM in combination with 3 CFU/Larva were injected into groups of 15 larvae. In addition to no injection and PBS controls, one group was infected with 3 CFU/Larva and considered the negative control. All test groups and control groups were incubated at 37° C. in the dark and monitored every 2 hours from 17 hours post-infection.

purified LasB = purified LasB (Pseudomonas aeruginosa (strain ATCC 15692 / DSM 22644 / CIP 104116 / JCM 14847 / LMG 12228 / 1C / PRS 101 / PAO1), UniProt P14756); assay: Ex vivo lung homogenate assay with purified LasB; type: biochemical
purified LasB, sequence (P14756 198-498): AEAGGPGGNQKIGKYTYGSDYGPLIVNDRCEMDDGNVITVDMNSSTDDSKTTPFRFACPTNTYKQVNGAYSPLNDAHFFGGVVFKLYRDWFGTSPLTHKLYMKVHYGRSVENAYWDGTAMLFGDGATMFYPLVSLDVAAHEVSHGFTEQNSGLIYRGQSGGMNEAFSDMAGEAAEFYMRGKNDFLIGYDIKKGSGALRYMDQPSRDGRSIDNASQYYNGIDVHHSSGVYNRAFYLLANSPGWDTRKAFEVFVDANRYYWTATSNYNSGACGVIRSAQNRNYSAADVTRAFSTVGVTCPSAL
Method: The lung homogenate was prepared from pig lung, which was stored at −80° C. After thawing the lung tissue was cut into pieces of approximately 1.5 cm diameter and 0.5 to 1 cm thickness. Subsequently the bits were flash frozen in liquid nitrogen and lyophilized for 48 h.
1.2 g dried tissue was then ball milled using an IKA Tube Drive and the respective 50 mL ball milling tubes. 20 steel balls were used with target rpm of 6000, reversing the spinning direction every 30 seconds for a total of 10 min. After 10 min the tube was detached and inverted to loosen the powder. The ball milling was repeated with the same setup twice again.
To the powdery tissue 50 mL of a 10 mM Tris buffer including 2 mM CaCl2 with a pH of 8.0 was added and the IKA Tube Drive used again with the same settings as described before for 10 min to disperse the tissue powder in the aqueous buffer. The yielded lung homogenate was pipetted into 15 mL falcons and stored at −80° C. until further use.
To perform the LasB activity/inhibition assay a compound dilution was prepared in DMSO yielding a 100 fold concentration of the final concentration in the assay. LasB was diluted from a higher stock solution to a 6 μM stock in the same buffer as used for the lung homogenate. The assay was performed in Eppis. With a stepper pipette 10 μL of the prepared LasB solution was added to the Eppis to yield a final protein concentration of 300 nM. Then 188 μL of thawed lung homogenate was added with a stepper pipette. Finally, 2 μL of the 100 fold compound dilutions were added and mixed by pipetting up and down. The Eppis were incubated at 37° C. with a shaking speed of 1000 rpm for 4 h.
After 4 h, the Eppis were centrifuged at a speed of 14,000 rpm, 4° C. for 10 min to separate the soluble cleaved Elastin fragments from the non-cleaved insoluble part. 100 μL of the obtained supernatant was transferred to new Eppis, and the same volume of concentrated hydrochloric acid added. […]
Peak areas and response ratios were calculated using Xcalibur Quan browser with Amprolium set as internal standard. […]

LasB, sequence (P14756 198-498): as above

In the case of `CC(C)CC(C(=O)NO)C(=O)Nc1ccc(Cn2cc(CNS(=O)(=O)CC(C)C)nn2)cc1` (stereo not drawn) [Compound 169, 2-(Hydroxycarbamoyl)-N-[4-[[4-[(isobutylsulfonylamino)methyl]triazol-1-yl]methyl]phenyl]-4-methyl-pentanamide], the IC50 (LasB) is reported as 5.2 ± 0.2 nM, the “Final survival percentage of larvae” value ([1]; 12.5 μM) is reported as 53% and the “Final survival percentage of larvae” value ([1]; 25 μM) is reported as 73%. The “Final survival percentage of larvae” value ([1]; 50 μM) was 82%, the “Improvement in survival of larvae compared to negative control” value ([1]; 50 μM, vs 3 CFU/Larva without treatment) was 40% and the IC50 (purified LasB) was 77 nM.
